Reference: US20060199862A1, “Method for enhancing cognitive function” (priority 2005, published 2006)
Like-named read-outs stand apart in the source and are kept apart here.

Legend:
[1] = test system: rats with chronic cerebral ischemia induced by chronic bilateral ligation of common carotid arteries; conditions: for Latency, s Post-shock / Latency, s Pre-shock: test on day 8 since ligation, mean±SD, n=8; for Latency, s Post-shock: 24 hours after the shock
Description: The effect of the compound of the formula (I) on cognitive function was assessed in rats with chronic cerebral ischemia induced by chronic bilateral ligation of common carotid arteries. The ligation was made in Wistar male rats 3 hours prior the first injection of the compound of the formula (I) or saline. Rats were injected i.p. with 1 mg/kg or 50 mg/kg the compound of the formula (I) or saline (control) for 7 days singly a day. Passive avoidance step-through paradigm test (short-term learning) was made on day 8th since the ligation. The pre-shock and post-shock latency time was used as an index of cognitive impairments. […] Data are presented in table 1 as the latency time mean±SD (n=8).

[2] = test system: rats with cognitive impairments induced by amyloid injection (A-beta 25-35 in nucleus basalis magnocellularis); conditions: for Number of visits Repeated (to the same arm) / Number of visits Total (visited arms): Y-maze 5 min, next day after last injection, mean±SD, n=8
Description: Beta-amyloid 25-35 (A-beta 25-35) was injected in nucleus basalis magnocellularis (NBM) of rats to induce model of cognitive impairments relevant to human Alzheimer's disease as described. Harkany T et al., Behav Brain Res. 1998 90(2):133-45. Harkany T et al., Prog Neuropsychopharmacol Biol Psychiatry. 1999 23(6):963-1008.
A-beta 25-35 was administered bilaterally into NBM of male Wistar rats in dose of 2 μg per each side. Since 16th day of A-beta 25-35 injection, rats were injected i.p. with 1 mg/kg or 50 mg/kg the compound of the formula (I) or saline (control) for 7 days singly a day. The effect of the compound of the formula (I) on cognitive functions was tested in a model of spontaneous alteration in Y-maze at next day from the day of the last injection. It is a suitable model for assessing memory impairments. Total number of visited arms and number of repeated visits to the same arm for 5 min was counted. […] Data are presented in table 2 as the number of visits mean±SD (n=8).

[3] = 1 mg/kg i.p. once a day for 7 days
[4] = 50 mg/kg i.p. once a day for 7 days
[5] = 1 mg/kg i.p. once a day for 7 days from day 16 after A-beta 25-35
[6] = 50 mg/kg i.p. once a day for 7 days from day 16 after A-beta 25-35

With C[N+](C)(C)CCO.C[N+](C)(C)CCO.O=C([O-])CCC(=O)[O-] [Compound of the formula (I), bis[2-hydroxyethyl-N,N,N-trimethylaminium]butanedioate] the “Latency, s Post-shock” value [1, 3] was 99.3 ± 24.5 s, the “Latency, s Pre-shock” value [1, 3] was 13.5 ± 4.3 s and the “Latency, s Post-shock” value [1, 4] was 53.3 ± 16.3 s. The “Latency, s Pre-shock” value [1, 4] was 27.7 ± 13.1 s, the “Effect on cognitive function as compared to the control” value ([1]; cognitive impairments induced by chronic cerebral ischemia, vs saline control) was “significantly enhanced cognitive function” and the “Number of visits Repeated (to the same arm)” value [2, 5] was 0.65 ± 0.24. For the same molecule, the “Number of visits Total (visited arms)” value [2, 5] was 3.00 ± 0.41, the “Number of visits Repeated (to the same arm)” value [2, 6] was 0.75 ± 0.29 and the “Number of visits Total (visited arms)” value [2, 6] was 2.55 ± 0.33. The “Effect on cognitive function (memory) as compared to the control” value ([2]; cognitive function impaired by amyloid toxicity, vs saline control) was “significantly enhanced cognitive function (memory)”.
